{"source": "ChEMBL document CHEMBL3885881", "about": "“DrugMatrix”", "species": "Rattus norvegicus", "experiment": "DrugMatrix - Regimen: Daily Repeat", "type": "toxicity, organism-based, Sprague-Dawley", "set-up": "regimen Daily Repeat, gender Male, age 6-8 weeks", "conditions": "in vivo, po, 17.5 mg/kg, route oral GAVAGE, dose level Low, vehicle 100 % SALINE; for ABSOLUTE BASOPHIL / ABSOLUTE EOSINOPHIL / ABSOLUTE LYMPHOCYTE / ABSOLUTE MONOCYTE / ABSOLUTE SEGMENTED NEUTROPHIL / BASOPHIL / EOSINOPHIL / ERYTHROCYTE COUNT / HEMATOCRIT / HEMOGLOBIN / LEUKOCYTE COUNT / LYMPHOCYTE / MEAN CORPUSCULAR HEMOGLOBIN / MEAN CORPUSCULAR HEMOGLOBIN CONCENTRATION / MEAN CORPUSCULAR VOLUME / MONOCYTE / NEUTROPHIL / NUCLEATED RED BLOOD CELLS / PLATELET COUNT: tissue Blood; for ALANINE AMINOTRANSFERASE / ALBUMIN / ALKALINE PHOSPHATASE / ASPARTATE AMINOTRANSFERASE / BLOOD UREA NITROGEN / CARBON DIOXIDE / CHLORIDE / CHOLESTEROL / CREATINE PHOSPHOKINASE / CREATININE / GLUCOSE / LACTATE DEHYDROGENASE / LIPASE / PHOSPHORUS / POTASSIUM / SODIUM / TOTAL BILIRUBIN / TOTAL PROTEIN / URIC ACID: tissue Plasma", "data": [{"compound": "NC(=O)C[S+]([O-])C(c1ccccc1)c1ccccc1", "note": "(stereo unspecified) [MODAFINIL]", "values": [{"measurement": "ABSOLUTE BASOPHIL", "setting": "72 h, time 3 day", "result": 0, "unit": "CELLS/uL"}, {"measurement": "ABSOLUTE EOSINOPHIL", "setting": "72 h, time 3 day", "result": 0, "unit": "CELLS/uL"}, {"measurement": "ABSOLUTE LYMPHOCYTE", "setting": "72 h, time 3 day", "result": 8269.33, "unit": "CELLS/uL"}, {"measurement": "ABSOLUTE MONOCYTE", "setting": "72 h, time 3 day", "result": 22, "unit": "CELLS/uL"}, {"measurement": "ABSOLUTE SEGMENTED NEUTROPHIL", "setting": "72 h, time 3 day", "result": 608.67, "unit": "CELLS/uL"}, {"measurement": "BASOPHIL", "setting": "72 h, time 3 day", "result": 0, "unit": "%"}, {"measurement": "EOSINOPHIL", "setting": "72 h, time 3 day", "result": 0, "unit": "%"}, {"measurement": "ERYTHROCYTE COUNT", "setting": "72 h, time 3 day", "result": 5.35, "unit": "x10E6/uL"}, {"measurement": "HEMATOCRIT", "setting": "72 h, time 3 day", "result": 32.93, "unit": "%"}, {"measurement": "HEMOGLOBIN", "setting": "72 h, time 3 day", "result": 12.87, "unit": "G/DL"}, {"measurement": "LEUKOCYTE COUNT", "setting": "72 h, time 3 day", "result": 8.9, "unit": "x10E3/uL"}, {"measurement": "LYMPHOCYTE", "setting": "72 h, time 3 day", "result": 93, "unit": "%"}, {"measurement": "MEAN CORPUSCULAR HEMOGLOBIN", "setting": "72 h, time 3 day", "result": 24.07, "unit": "pg"}, {"measurement": "MEAN CORPUSCULAR HEMOGLOBIN CONCENTRATION", "setting": "72 h, time 3 day", "result": 39.03, "unit": "G/DL"}, {"measurement": "MEAN CORPUSCULAR VOLUME", "setting": "72 h, time 3 day", "result": 61.67, "unit": "fL"}, {"measurement": "MONOCYTE", "setting": "72 h, time 3 day", "result": 0.33, "unit": "%"}, {"measurement": "NEUTROPHIL", "setting": "72 h, time 3 day", "result": 6.67, "unit": "%"}, {"measurement": "NUCLEATED RED BLOOD CELLS", "setting": "72 h, time 3 day", "result": "0 /100WBC"}, {"measurement": "PLATELET COUNT", "setting": "72 h, time 3 day", "result": 1018.67, "unit": "x10E3/uL"}, {"measurement": "ALANINE AMINOTRANSFERASE", "setting": "72 h, time 3 day", "result": 51.33, "unit": "u/L"}, {"measurement": "ALBUMIN", "setting": "72 h, time 3 day", "result": 4.2, "unit": "G/DL"}, {"measurement": "ALKALINE PHOSPHATASE", "setting": "72 h, time 3 day", "result": 290.33, "unit": "u/L"}, {"measurement": "ASPARTATE AMINOTRANSFERASE", "setting": "72 h, time 3 day", "result": 79.67, "unit": "u/L"}, {"measurement": "BLOOD UREA NITROGEN", "setting": "72 h, time 3 day", "result": 14, "unit": "mg/dL"}, {"measurement": "CARBON DIOXIDE", "setting": "72 h, time 3 day", "result": 27.67, "unit": "mmol/L"}, {"measurement": "CHLORIDE", "setting": "72 h, time 3 day", "result": 100.33, "unit": "MEQ/L"}, {"measurement": "CHOLESTEROL", "setting": "72 h, time 3 day", "result": 66, "unit": "mg/dL"}, {"measurement": "CREATINE PHOSPHOKINASE", "setting": "72 h, time 3 day", "result": 304.67, "unit": "u/L"}, {"measurement": "CREATININE", "setting": "72 h, time 3 day", "result": 0.22, "unit": "mg/dL"}, {"measurement": "GLUCOSE", "setting": "72 h, time 3 day", "result": 157.67, "unit": "mg/dL"}, {"measurement": "LACTATE DEHYDROGENASE", "setting": "72 h, time 3 day", "result": 92.67, "unit": "u/L"}, {"measurement": "LIPASE", "setting": "72 h, time 3 day", "result": 11, "unit": "u/L"}, {"measurement": "PHOSPHORUS", "setting": "72 h, time 3 day", "result": 11.77, "unit": "mg/dL"}, {"measurement": "POTASSIUM", "setting": "72 h, time 3 day", "result": 5.21, "unit": "MEQ/L"}, {"measurement": "SODIUM", "setting": "72 h, time 3 day", "result": 144.33, "unit": "MEQ/L"}, {"measurement": "TOTAL BILIRUBIN", "setting": "72 h, time 3 day", "result": 0.17, "unit": "mg/dL"}, {"measurement": "TOTAL PROTEIN", "setting": "72 h, time 3 day", "result": 5.93, "unit": "G/DL"}, {"measurement": "URIC ACID", "setting": "72 h, time 3 day", "result": 0.7, "unit": "mg/dL"}, {"measurement": "ABSOLUTE BASOPHIL", "setting": "120 h, time 5 day", "result": 0, "unit": "CELLS/uL"}, {"measurement": "ABSOLUTE EOSINOPHIL", "setting": "120 h, time 5 day", "result": 0, "unit": "CELLS/uL"}, {"measurement": "ABSOLUTE LYMPHOCYTE", "setting": "120 h, time 5 day", "result": 7020.33, "unit": "CELLS/uL"}, {"measurement": "ABSOLUTE MONOCYTE", "setting": "120 h, time 5 day", "result": 0, "unit": "CELLS/uL"}, {"measurement": "ABSOLUTE SEGMENTED NEUTROPHIL", "setting": "120 h, time 5 day", "result": 813, "unit": "CELLS/uL"}, {"measurement": "BASOPHIL", "setting": "120 h, time 5 day", "result": 0, "unit": "%"}, {"measurement": "EOSINOPHIL", "setting": "120 h, time 5 day", "result": 0, "unit": "%"}, {"measurement": "ERYTHROCYTE COUNT", "setting": "120 h, time 5 day", "result": 5.19, "unit": "x10E6/uL"}, {"measurement": "HEMATOCRIT", "setting": "120 h, time 5 day", "result": 32.03, "unit": "%"}, {"measurement": "HEMOGLOBIN", "setting": "120 h, time 5 day", "result": 12.9, "unit": "G/DL"}, {"measurement": "LEUKOCYTE COUNT", "setting": "120 h, time 5 day", "result": 7.83, "unit": "x10E3/uL"}, {"measurement": "LYMPHOCYTE", "setting": "120 h, time 5 day", "result": 90, "unit": "%"}, {"measurement": "MEAN CORPUSCULAR HEMOGLOBIN", "setting": "120 h, time 5 day", "result": 24.93, "unit": "pg"}, {"measurement": "MEAN CORPUSCULAR HEMOGLOBIN CONCENTRATION", "setting": "120 h, time 5 day", "result": 40.27, "unit": "G/DL"}, {"measurement": "MEAN CORPUSCULAR VOLUME", "setting": "120 h, time 5 day", "result": 61.83, "unit": "fL"}, {"measurement": "MONOCYTE", "setting": "120 h, time 5 day", "result": 0, "unit": "%"}, {"measurement": "NEUTROPHIL", "setting": "120 h, time 5 day", "result": 10, "unit": "%"}, {"measurement": "NUCLEATED RED BLOOD CELLS", "setting": "120 h, time 5 day", "result": "0 /100WBC"}, {"measurement": "PLATELET COUNT", "setting": "120 h, time 5 day", "result": 1105.67, "unit": "x10E3/uL"}, {"measurement": "ALANINE AMINOTRANSFERASE", "setting": "120 h, time 5 day", "result": 54.33, "unit": "u/L"}, {"measurement": "ALBUMIN", "setting": "120 h, time 5 day", "result": 4.27, "unit": "G/DL"}, {"measurement": "ALKALINE PHOSPHATASE", "setting": "120 h, time 5 day", "result": 413, "unit": "u/L"}, {"measurement": "ASPARTATE AMINOTRANSFERASE", "setting": "120 h, time 5 day", "result": 84, "unit": "u/L"}, {"measurement": "BLOOD UREA NITROGEN", "setting": "120 h, time 5 day", "result": 11, "unit": "mg/dL"}, {"measurement": "CARBON DIOXIDE", "setting": "120 h, time 5 day", "result": 33.67, "unit": "mmol/L"}, {"measurement": "CHLORIDE", "setting": "120 h, time 5 day", "result": 98.33, "unit": "MEQ/L"}, {"measurement": "CHOLESTEROL", "setting": "120 h, time 5 day", "result": 73, "unit": "mg/dL"}, {"measurement": "CREATINE PHOSPHOKINASE", "setting": "120 h, time 5 day", "result": 441.67, "unit": "u/L"}, {"measurement": "CREATININE", "setting": "120 h, time 5 day", "result": 0.39, "unit": "mg/dL"}, {"measurement": "GLUCOSE", "setting": "120 h, time 5 day", "result": 133, "unit": "mg/dL"}, {"measurement": "LACTATE DEHYDROGENASE", "setting": "120 h, time 5 day", "result": 119.33, "unit": "u/L"}, {"measurement": "LIPASE", "setting": "120 h, time 5 day", "result": 10.67, "unit": "u/L"}, {"measurement": "PHOSPHORUS", "setting": "120 h, time 5 day", "result": 10.57, "unit": "mg/dL"}, {"measurement": "POTASSIUM", "setting": "120 h, time 5 day", "result": 6.11, "unit": "MEQ/L"}, {"measurement": "SODIUM", "setting": "120 h, time 5 day", "result": 143.73, "unit": "MEQ/L"}, {"measurement": "TOTAL BILIRUBIN", "setting": "120 h, time 5 day", "result": 0.13, "unit": "mg/dL"}, {"measurement": "TOTAL PROTEIN", "setting": "120 h, time 5 day", "result": 6.13, "unit": "G/DL"}, {"measurement": "URIC ACID", "setting": "120 h, time 5 day", "result": 0.7, "unit": "mg/dL"}]}]}
